# Test results as given in US4480118A, “Carboxylic acid ester and an insecticidal and/or acaricidal composition containing the same” (priority 1981, dated 1984).
# Where two headings read alike, the source gives them in different places.
# Experiments:
# housefly [1] = experiment: Insecticidal activity against housefly (Filter paper bait and contact method); format: in vivo; settings: for mortality at 500 ppm: Musca domestica
# Procedure: Each 20 parts of the present compounds No. 1 to No. 29, 10 parts of an emulsifier (Sorpol 3005X; trademark for Toho Chemical Co.) and 70 parts of xylene are thoroughly mixed by stirring to obtain an emulsifiable concentrate of each compound.
# A piece of filter paper, 5.5 cm in diameter, was laid on the bottom of a polyethylene cup of the identical inner diameter. An emulsifiable concentrate prepared in the same manner as in Preparation Example 2 was diluted with water. To the filter paper, was added dropwise 0.7 ml of the diluted sample (500 ppm in concentration). Sucrose (30 mg) was placed on the filter paper to serve as bait. Ten adult female houseflies were released into the cup, closed with a cover, and observed for the number of dead and alive insects after 48 hours to calculate the mortality (2 replications).
# housefly [2] = experiment: Insecticidal activity against housefly (Topical application method); format: in vivo; settings: dorsal thorax, adult female, 24 hours
# Procedure: The present compounds and the reference compounds were diluted with acetone to prescribed concentrations. Each 0.5 μl of the diluted samples was applied topically with a microsyringe onto the dorsal thorax of an adult female housefly. The flies were fed and observed for the number of dead and alive insects after 24 hours. LD50 (median lethal dose) was calculated from the mortalities at each dosage by probit method.
# housefly [3] = experiment: Activity of oil spray against adult housefly (glass chamber); format: in vivo; settings: oil spray 0.5 ml, 10 minutes exposure; for mortality, House fly: observed on the following day, 1440 min
# Procedure: (§1) 0.1 Part of each compound Nos. 10, 12, 15, 17, 18, 19, 22, 23 and 29 of this invention is dissolved in deodorized kerosene and made up to 100 parts with kerosene to obtain an oil spray.
# (§2) Ten adult houseflies and ten adult female northern house mosquitos were released in a glass chamber, 70×70×70 cm in size. An oil spray preparation (0.5 ml) obtained in Preparation Example 1 was sprayed inside the chamber and the insects were exposed to the descending mist for 10 minutes, during which time the number of knocked-down insects was counted at predetermined time intervals to determine the 50% knockdown time (KT50). On the following day, the dead and alive insects were observed.
# northern house mosquito = experiment: Activity of oil spray against adult female northern house mosquito (glass chamber); format: in vivo
# Procedure: as §1, §2
# tobacco cutworm = experiment: Insecticidal activity against tobacco cutworm; format: in vivo; settings: 24 h
# Procedure: An artificial diet (15 g) for tobacco cutworm was wet with 2 ml of the prescribed aqueous dilution of an emulsifiable concentrate obtained in Preparation Example 2 or of that obtained from reference compounds. The diet thus treated was placed in a polyethylene cup of 11 cm in diameter.
# green rice leafhopper = experiment: Insecticidal activity against green rice leafhopper; settings: Nephotettix cincticeps, 24 h
# [4] = 500 ppm, 48 hours, adult female houseflies, read-out: Mortality
# [5] = northern house mosquito, in vivo, 24 h
# [6] = oil spray 0.5 ml, 10 minutes exposure
# [7] = read-out: LC50 (median lethal concentration), treated artificial diet, third-instar larvae, 24 hours
# [8] = read-out: Percent mortality days after spraying: 0
# [9] = read-out: Percent mortality days after spraying: 3
# [10] = read-out: Percent mortality days after spraying: 7
# [11] = read-out: LC50 (median lethal concentration)
# [12] = oil spray 0.5 ml, 10 minutes exposure, observed on the following day, 1440 min
smiles,measurement,setting,value
CC1(C)[C@@H](C(=O)OC(C#N)c2cccc(Oc3ccccc3)c2)[C@]12Cc1ccccc1O2 (relative stereo) [Compound 17],mortality at 500 ppm,housefly [1]; [4],100%
same,LD50 (median lethal dose),housefly [2],0.064 μg/female
same,"KT50 (50% knockdown time), House fly",housefly [3],264 s
same,"mortality, House fly",housefly [3],80%
same,"mortality, Northern house mosquito",northern house mosquito; [5],100%
same,"KT50 (50% knockdown time), Northern house mosquito",northern house mosquito; [6],330 s
CC1(C)[C@@H](C(=O)OC(C#N)c2cccc(Oc3ccccc3)c2)[C@@]12Cc1ccccc1O2 (relative stereo) [Compound 18],mortality at 500 ppm,housefly [1]; [4],100%
same,LD50 (median lethal dose),housefly [2],0.0061 μg/female
same,LC50,tobacco cutworm; [7],1.8 µg/mL
same,"KT50 (50% knockdown time), House fly",housefly [3],600 s
same,"mortality, House fly",housefly [3],10%
same,"mortality, Northern house mosquito",northern house mosquito; [5],100%
same,"KT50 (50% knockdown time), Northern house mosquito",northern house mosquito; [6],456 s
CC1(C)C(C(=O)OC(C#N)c2cccc(Oc3ccccc3)c2)C12Cc1c(F)c(F)c(F)c(F)c1C2 (stereo not drawn) [Compound 1],mortality at 500 ppm,housefly [1]; [4],100%
same,LD50 (median lethal dose),housefly [2],0.0052 μg/female
same,LC50,tobacco cutworm; [7],3.5 µg/mL
same,mortality at 50 ppm,green rice leafhopper; [8],100%
same,mortality at 50 ppm,green rice leafhopper; [9],100%
same,mortality at 50 ppm,green rice leafhopper; [10],86%
CC1(C)C(C(=O)OC(C#N)c2cccc(Oc3ccccc3)c2)C12Cc1ccccc1C2 (stereo not drawn) [Compound 2],mortality at 500 ppm,housefly [1]; [4],100%
same,LD50 (median lethal dose),housefly [2],0.0045 μg/female
same,LC50,tobacco cutworm; [7],2 µg/mL
same,mortality at 50 ppm,green rice leafhopper; [8],100%
same,mortality at 50 ppm,green rice leafhopper; [9],100%
same,mortality at 50 ppm,green rice leafhopper; [10],100%
CC1(C)C(C(=O)OC(C#N)c2cccc(Oc3ccccc3)c2)C12Cc1ccc(Cl)cc1C2 (stereo not drawn) [Compound 3],mortality at 500 ppm,housefly [1]; [4],100%
same,LD50 (median lethal dose),housefly [2],0.0076 μg/female
same,LC50,tobacco cutworm; [7],3.3 µg/mL
same,mortality at 50 ppm,green rice leafhopper; [8],100%
same,mortality at 50 ppm,green rice leafhopper; [9],100%
same,mortality at 50 ppm,green rice leafhopper; [10],100%
CC1(C)C(C(=O)OC(C#N)c2cccc(Oc3ccccc3)c2)C12Cc1ccc(F)cc1C2 (stereo not drawn) [Compound 4],mortality at 500 ppm,housefly [1]; [4],100%
same,LD50 (median lethal dose),housefly [2],0.0042 μg/female
same,LC50,tobacco cutworm; [7],1 µg/mL
CC1(C)C(C(=O)OC(C#N)c2cccc(Oc3ccccc3)c2)C12Cc1ccc(Br)cc1C2 (stereo not drawn) [Compound 5],mortality at 500 ppm,housefly [1]; [4],100%
same,LD50 (median lethal dose),housefly [2],0.018 μg/female
same,LC50,tobacco cutworm; [7],7.2 µg/mL
same,mortality at 50 ppm,green rice leafhopper; [8],100%
same,mortality at 50 ppm,green rice leafhopper; [9],100%
same,mortality at 50 ppm,green rice leafhopper; [10],100%
CC1(C)C(C(=O)OC(C#N)c2cccc(Oc3ccccc3)c2)C12Cc1cccc(F)c1C2 (stereo not drawn) [Compound 6],mortality at 500 ppm,housefly [1]; [4],100%
CC1(C)C(C(=O)OC(C#N)c2ccc(F)c(Oc3ccccc3)c2)C12Cc1ccccc1C2 (stereo not drawn) [Compound 7],mortality at 500 ppm,housefly [1]; [4],100%
same,LD50 (median lethal dose),housefly [2],0.0044 μg/female
same,LC50,tobacco cutworm; [7],1.8 µg/mL
same,mortality at 50 ppm,green rice leafhopper; [8],100%
same,mortality at 50 ppm,green rice leafhopper; [9],100%
same,mortality at 50 ppm,green rice leafhopper; [10],100%
CC1(C)C(C(=O)O[C@H](C#N)c2cccc(Oc3ccccc3)c2)C12Cc1ccccc1C2 (stereo partly drawn) [Compound 8],mortality at 500 ppm,housefly [1]; [4],100%
same,LD50 (median lethal dose),housefly [2],0.0032 μg/female
same,LC50,tobacco cutworm; [7],1.1 µg/mL
CC1(C)C(C(=O)O[C@H](C#N)c2cccc(Oc3ccccc3)c2)C12Cc1ccccc1C2 (stereo partly drawn) [Compound 9],Mortality,"housefly [1]; 500 ppm, 48 hours, adult female houseflies",100%
same,LD50 (median lethal dose),housefly [2],0.0013 μg/female
same,LC50 (median lethal concentration),"tobacco cutworm; tobacco cutworm, in vivo",0.6 ppm
CC1(C)C(C(=O)OCc2coc(Cc3ccccc3)c2)C12Cc1ccccc1C2 (stereo not drawn) [Compound 11],mortality at 500 ppm,housefly [1]; [4],100%
same,LD50 (median lethal dose),housefly [2],0.023 μg/female
CC1(C)C(C(=O)OCN2C(=O)C3=C(CCCC3)C2=O)C12Cc1ccccc1C2 (stereo not drawn) [Compound 12],mortality at 500 ppm,housefly [1]; [4],100%
same,"KT50 (50% knockdown time), House fly",housefly [3],125 s
same,"mortality, House fly",housefly [3],10%
same,"mortality, Northern house mosquito",northern house mosquito; [5],95%
same,"KT50 (50% knockdown time), Northern house mosquito",northern house mosquito; [6],400 s
CC1(C)C(C(=O)OCc2cccc(Cc3ccccc3)c2)C12Cc1ccccc1C2 (stereo not drawn) [Compound 13],mortality at 500 ppm,housefly [1]; [4],100%
same,mortality at 50 ppm,green rice leafhopper; [8],100%
same,mortality at 50 ppm,green rice leafhopper; [9],93%
same,mortality at 50 ppm,green rice leafhopper; [10],100%
C#CC(OC(=O)C1C(C)(C)C12Cc1ccccc1C2)C(C)=CCC (stereo not drawn) [Compound 14],mortality at 500 ppm,housefly [1]; [4],100%
CC1(C)C(C(=O)OC(C#N)c2cccc(Oc3ccc(Br)cc3)c2)C12Cc1ccccc1C2 (stereo not drawn) [Compound 16],mortality at 500 ppm,housefly [1]; [4],100%
same,mortality at 50 ppm,green rice leafhopper; [8],100%
same,mortality at 50 ppm,green rice leafhopper; [9],100%
same,mortality at 50 ppm,green rice leafhopper; [10],97%
CC1(C)C(C(=O)OC(C#N)c2cccc(Oc3ccccc3)c2)C12Cc1ccccc12 (stereo not drawn) [Compound 19],mortality at 500 ppm,housefly [1]; 48 h,100%
same,LC50,tobacco cutworm; [11],5 µg/mL
same,"KT50 (50% knockdown time), House fly",housefly [3],600 s
same,"mortality, House fly",housefly [3],80%
same,"KT50 (50% knockdown time), Northern house mosquito",northern house mosquito; [6],492 s
same,"mortality, Northern house mosquito",northern house mosquito; [12],100%
CC1(C)C(C(=O)OC(C#N)c2ccc(F)c(Oc3ccccc3)c2)C12Cc1ccccc12 (stereo not drawn) [Compound 20],mortality at 500 ppm,housefly [1]; 48 h,100%
same,mortality at 50 ppm,green rice leafhopper; [8],100%
same,mortality at 50 ppm,green rice leafhopper; [9],100%
same,mortality at 50 ppm,green rice leafhopper; [10],90%
CC1(C)C(C(=O)OCc2cccc(Oc3ccccc3)c2)C12Cc1ccccc1C2 (stereo not drawn) [Compound 21],mortality at 500 ppm,housefly [1]; [4],100%
C#CCN1CC(=O)N(COC(=O)C2C(C)(C)C23Cc2ccccc2C3)C1=O (stereo not drawn) [Compound 22],mortality at 500 ppm,housefly [1]; [4],100%
same,"KT50 (50% knockdown time), House fly",housefly [3],80 s
same,"mortality, House fly",housefly [3],90%
same,"mortality, Northern house mosquito",northern house mosquito; [5],10%
same,"KT50 (50% knockdown time), Northern house mosquito",northern house mosquito; [6],344 s
C#CCC=C(C)C(C#C)OC(=O)C1C(C)(C)C12Cc1ccccc1C2 (stereo not drawn) [Compound 23],mortality at 500 ppm,housefly [1]; [4],100%
same,LD50 (median lethal dose),housefly [2],0.045 μg/female
same,"KT50 (50% knockdown time), House fly",housefly [3],388 s
same,"mortality, House fly",housefly [3],60%
same,"mortality, Northern house mosquito",northern house mosquito; [5],70%
same,"KT50 (50% knockdown time), Northern house mosquito",northern house mosquito; [6],360 s
C#CC(C#C)OC(=O)C1C(C)(C)C12Cc1ccccc1C2 (stereo not drawn) [Compound 24],mortality at 500 ppm,housefly [1]; [4],100%
CC1(C)C(C(=O)OCC=C(Cl)Cc2ccccc2)C12Cc1ccccc1C2 (stereo not drawn) [Compound 25],mortality at 500 ppm,housefly [1]; [4],100%
same,LC50,tobacco cutworm; [7],4 µg/mL
C=CCc1cccc2c1CCC2OC(=O)C1C(C)(C)C12Cc1ccc(F)cc1C2 (stereo not drawn) [Compound 26],mortality at 500 ppm,housefly [1]; [4],100%
CC1(C)C(C(=O)OCc2c(Cl)c(Cl)c(Cl)c(Cl)c2Cl)C12Cc1ccccc1C2 (stereo not drawn) [Compound 28],mortality at 500 ppm,housefly [1]; [4],100%
same,LC50,"tobacco cutworm; treated artificial diet, third-instar larvae, 24 hours, read-out: LC50 (median lethal concentration)",8.7 µg/mL
CC1(C)C(C(=O)OC2C=C(Cc3ccccc3)C(=O)C2)C12Cc1ccccc1C2 (stereo not drawn) [Compound 29],mortality at 500 ppm,housefly [1]; [4],100%
same,"KT50 (50% knockdown time), House fly",housefly [3],298 s
same,"mortality, House fly",housefly [3],40%
same,"mortality, Northern house mosquito",northern house mosquito; [5],70%
same,"KT50 (50% knockdown time), Northern house mosquito",northern house mosquito; [6],296 s
"CNC(=O)Oc1cccc2ccccc12 [NAC, 1naphthyl N--methylcarbamate, reference compound]",mortality at 250 ppm,green rice leafhopper; [8],50%
"CC(C)=CC1C(C(=O)OCc2cccc(Oc3ccccc3)c2)C1(C)C (stereo not drawn) [drawing 58, reference compound]",LD50 (median lethal dose),housefly [2],0.26 μg/female
"CC1(C)C(C(=O)OC(C#N)c2cccc(Oc3ccccc3)c2)C12C=Cc1ccccc12 (stereo not drawn) [drawing 61, reference compound]",LD50 (median lethal dose),housefly [2],0.16 μg/female
"CC(C)=CC1C(C(=O)OCc2cccc(Oc3ccccc3)c2)C1(C)C (stereo not drawn) [drawing 62, reference compound]",LC50,tobacco cutworm; [11],24 µg/mL
"CC1(C)C(C(=O)OC(C#N)c2cccc(Oc3ccccc3)c2)C12C=Cc1ccccc12 (stereo not drawn) [drawing 63, reference compound]",LC50,tobacco cutworm; [11],46.1 µg/mL
"CC1(C)C(C(=O)OC(C#N)c2cccc(Oc3ccccc3)c2)C12C=Cc1ccccc12 (stereo not drawn) [drawing 64, reference compound]","KT50 (50% knockdown time), House fly",housefly [3],> 600 s
same,"KT50 (50% knockdown time), Northern house mosquito",northern house mosquito; [6],600 s
same,"mortality, Northern house mosquito",northern house mosquito; [12],50%
CC(C)=CC1C(C(=O)OC(C#N)c2cccc(Oc3ccccc3)c2)C1(C)C (stereo not drawn) [reference compound],LD50 (median lethal dose),housefly [2],0.079 μg/female
